The record followed here is US7799565B2, “Lipid encapsulated interfering RNA” (Protiva Biotherapeutics, Inc., priority 2004, dated 2010).

One series relates to luciferase. The series is described as follows: In vitro silencing of luciferase in stably transfected Neuro2A cells. Type of series: cell-based. Particulars: 48 hours; for luciferase expression relative to untreated control: cationic lipid incorporated in SNALP with anti-luciferase siRNA. The procedure:
In vitro Transfection: Cells were cultured in MEM (Invitrogen) containing 10% fetal bovine serum (FBS) (CanSera) and 0.25 mg/mL G418 (Invitrogen). Neuro2A-G cells (Neuro2A cells stably transfected to express luciferase [R. E. Kingston. in Current Protocols in Molecular Biology, Vol. 2, pp. 9.1.4-9.1.9, John Wiley & Sons, Inc. (1997)]) were plated at a concentration of 4×10^4 cells per well in 24-well plates and grown overnight. Cells were treated with SNALP at doses of 0.0625-1.0 μg/mL nucleic acid (AntiLuc Active or Mismatch Control) and incubated for 48 hours at 37° C. and 5% CO2. Cells were then washed with PBS and lysed with 200 μL 250 mM sodium phosphate containing 0.1% Triton X-100. The luciferase activity for each well was determined using Luciferase Reagent (Promega) and a standard luciferase protein (Roche). The luminescence for each was measured using a Berthold MicroLumatPlus LB96V plate luminometer. The resulting luciferase activity was then normalized for the amount of protein using the Micro BCA assay kit (Pierce). Luciferase knockdown relative to a control was then determined for each system.
This example describes experiments comparing expression of nucleic acids following in vitro transfection of Neuro2A cells with SNALP comprising: (1) DODAC, DODMA, or DLinDMA; (2) PEG-C-DMA; and (3) an siRNA duplex directed against luciferase encapsulated in the SNALP (i.e., siRNA comprising the following sequence: […] and targeting the DNA sequence complementary to: […]). Neuro2A cells were stably transfected with a plasmid encoding luciferase under the control of the CMV promoter (pLO55). The stably transfected cells were then transfected with SNALP comprising: 15, 20, 25, 30, 35, or 40% of DODAC, DODMA, or DLinDMA; 2% PEG-C-DMA, and an siRNA duplex directed against luciferase encapsulated in the SNALP. Luciferase protein expression was measured 48 hours after transfection with SNALP.
The ability of SNALP containing each of the four cationic lipids (i.e., DSDMA, DODMA, DLinDMA, and DLenDMA) to effect gene silencing in stably transfected Neuro2A cells was evaluated. Neuro2A cells stably transfected to express the luciferase were treated with SNALP containing anti-luciferase siRNA for 48 hours. Gene-silencing efficiency was evaluated by comparing the remaining luciferase activity in these cells to that remaining in cells treated with control SNALP containing mismatch siRNA.

The nature of series [1]: 31P-NMR phase transition of cationic lipid / DPPS vesicles. Format: physicochemical. Particulars: series DSDMA, DODMA, DLinDMA, DLenDMA. On the procedure: ^31P Nuclear Magnetic Resonance Spectroscopy: Multilamellar vesicles (MLV) were prepared comprising DPPS and cationic lipid at a molar ratio of 1:1. This was accomplished by drying the lipids from chloroform solution, transferring to 10 mm NMR tubes, and hydrating in 1.5 mL of 10 mM sodium citrate, pH 4. Free induction decays (FIDs) corresponding to 1000 scans were obtained with a 3.0 μs, 60 o pulse with a 1 s interpulse delay and a spectral width of 25000 Hz. A gated two-level proton decoupling was used to ensure sufficient decoupling with minimum sample heating. An exponential multiplication corresponding to 50 Hz of line broadening was applied to the FIDs prior to Fourier transformation. The sample temperature (+/−1° C.) was regulated using a Bruker B-VT1000 variable temperature unit. Chemical shifts were referenced to 85% phosphoric acid as an external standard.

Where [2] appears, read: SNALP with anti-luciferase siRNA, versus control SNALP containing mismatch siRNA.

In the case of `CCCCCCCCCCCCCCCCCC[N+](C)(C)CCCCCCCCCCCCCCCCCC` [DODMA, dioctadecyldimethylammonium, reference compound], in the series on luciferase, the “luciferase expression relative to untreated control” value was found to be 54%.

Regarding `CCCCC/C=C\C/C=C\CCCCCCCCOCC(CN(C)C)OCCCCCCCC/C=C\C/C=C\CCCCC` (stereo not shown) [DLinDMA, 1,2-DiLinoleyloxy-N,N-dimethylaminopropane], the “knockdown in gene expression” value with luciferase (setting [2]) came to 80%. Also, the “luciferase expression relative to untreated control” value with luciferase stood at 21%. The phase transition temperature entry in series [1] is “lowest phase transition temperature in the series”.

Regarding `CC/C=C\C/C=C\C/C=C\CCCCCCCCOCC(CN(C)C)OCCCCCCCC/C=C\C/C=C\C/C=C\CC` (stereo not shown) [DLenDMA, 1,2-Dilinolenyloxy-N,N-dimethylaminopropane], in the series with luciferase (setting [2]), the gene-silencing activity entry is given as “slightly less efficient than those containing DLinDMA”. Also, the “luciferase expression relative to untreated control” value in the series on luciferase came to 32%.

Consider `CCCCCCCCCCCCCCCCCC[N+](C)(C)CCCCCCCCCCCCCCCCCC` [DSDMA, Distearyldimethylammonium, reference compound], for which the gene-silencing activity result in the series with luciferase (setting [2]) is “no activity”.
